Experimental data from patent publication US8557848B2, “4,5-ring annulated indole derivatives for treating or preventing of HCV and related viral infections” (Merck Sharp & Dohme Corp., priority 2006, dated 2013).
pEC50, pIC50: −log10 of the molar value. Read-outs that look alike come from different tables or passages of the source.

Columns and labels:
[1] = tested on: HCV replicon cells (replicon RNA level); test: Cell-Based HCV Replicon Assay; details: Hepatitis C virus, 72 h
Experimental: To measure cell-based anti-HCV activity of the a Compound of Formula (I), replicon cells were seeded at 5000 cells/well in 96-well collagen I-coated Nunc plates in the presence of the Compound of Formula (I). Various concentrations of a Compound of Formula (I), typically in 10 serial 2-fold dilutions, were added to the assay mixture, with the starting concentration ranging from 250 μM to 1 μM. The final concentration of DMSO was 0.5%, fetal bovine serum was 5%, in the assay media. Cells were harvested on day 3 by the addition of 1× cell lysis buffer (Ambion cat #8721). The replicon RNA level was measured using real time PCR (Taqman assay). The amplicon was located in 5B. The PCR primers were: 5B.2F, ATGGACAGGCGCCCTGA; 5B.2R, […]; the probe sequence was FAM-labeled CACGCCATGCGCTGCGG. GAPDH RNA was used as endogenous control and was amplified in the same reaction as NS5B (multiplex PCR) using primers and VIC-labeled probe recommended by the manufacturer (PE Applied Biosystem). The real-time RT-PCR reactions were run on ABI PRISM 7900HT Sequence Detection System using the following program: 48° C. for 30 min, 95° C. for 10 min, 40 cycles of 95° C. for 15 sec, 60° C. for 1 min. The ΔCT values (CT5B-CTGAPDH) were plotted against the concentration of test compound and fitted to the sigmoid dose-response model using XLfit4 (MDL). EC50 was defined as the concentration of inhibitor necessary to achieve ΔCT=1 over the projected baseline; EC90 the concentration necessary to achieve ΔCT=3.2 over the baseline. Alternatively, to quantitate the absolute amount of replicon RNA, a standard curve was established by including serially diluted T7 transcripts of replicon RNA in the Taqman assay. All Taqman reagents were from PE Applied Biosystems. Such an assay procedure was described in detail in e.g. Malcolm et al., Antimicrobial Agents and Chemotherapy 50: 1013-1020 (2006).
HCV Replicon assay data for selected Compounds of Formula (I) is provided below in Table 1, wherein the compound numbers correspond to the compound numbering set forth in the above specification.

[2] = biological target: T1, HCV NS5B polymerase (NS5BΔCT21, from HCV-Con 1 isolate, genotype 1b) (Hepatitis C virus genotype 1b, UniProt Q9WMX2); test: HCV NS5B Polymerase Inhibition Assay; type: biochemical
T1 construct: A soluble C-terminal 21-amino acid truncated NS5B enzyme form; polyhistidine (C); made in house; host or cells: Escherichia coli
Description: A chemically synthesized 75-mer version, designated DCoH75, whose sequence matches the 3′-end of D-RNA, and DCoH75ddC, where the 3′-terminal cytidine of DCoH75 is replaced by dideoxycytidine, were used for assaying the NS5B enzyme activity as described in Ferrari et al., 12th International Symposium on HCV and Related Viruses, P-306 (2005). The sequence of the template RNA was: 5′-UGUGCCGGUCUUUCUGAACGGGAUAUAAACCUGGCCAGCUUCAUCGAACAAGUUGCCGUGUCUAUGACAUAGAUC-3′. A soluble C-terminal 21-amino acid truncated NS5B enzyme form (NS5BΔCT21, from HCV-Con 1 isolate, genotype 1b, Genbank accession number AJ238799) was produced and purified from Escherichia coli as C-terminal polyhistidine-tagged fusion protein as described in Ferrari et al., J. Virol. 73:1649-1654 (1999). A typical assay contained 20 mM Hepes pH 7.3, 10 mM MgCl2, 60 mM NaCl, 100 μg/ml BSA, 20 units/ml RNasin, 7.5 mM DTT, 0.1 μM ATP/GTP/UTP, 0.026 μM CTP, 0.25 mM GAU, 0.03 μM RNA template, 20 μCi/ml [^33P]-CTP, 2% DMSO, and 30 or 150 nM NS5B enzyme. Reactions were incubated at 22° C. for 2 hours, then stopped by adding 150 mM EDTA, washed in DE81 filter plate in 0.5M di-basic sodium phosphate buffer, pH 7.0, and counted using Packard TopCount after the addition of scintillation cocktail. Polynucleotide synthesis was monitored by the incorporation of radiolabeled CTP. The effect of the Compounds of Formula (I) on the polymerase activity was evaluated by adding various concentrations of a Compound of Formula (I), typically in 10 serial 2-fold dilutions, to the assay mixture. The starting concentrations ranged from 200 μM to 1 μM. An IC50 value for the inhibitor, defined as the compound concentration that provides 50% inhibition of polymerase activity, was determined by fitting the cpm data to the Hill equation Y=100/(1+10^((LogIC50-X)*HillSlope)), where X is the logarithm of compound concentration, and Y is the % inhibition. Ferrari et al., 12th International Symposium on HCV and Related Viruses, P-306 (2005) described in detail this assay procedure. It should be noted that such an assay as described is exemplary and not intended to limit the scope of the invention. The skilled practitioner can appreciate that modifications including but not limited to RNA template, primer, nucleotides, NS5B polymerase form, buffer composition, can be made to develop similar assays that yield the same result for the efficacy of the compounds and compositions described in the invention.
NS5B polymerase inhibition data for selected Compounds of Formula (I) is provided below in Table 2, wherein the compound numbers correspond to the compound numbering set forth in the above specification.

[3] = replicon RNA level by real time PCR (Taqman), cells harvested on day 3, read-out: EC50
[4] = NS5B polymerase inhibition, [33P]-CTP incorporation, 22° C. for 2 hours, read-out: IC50

SMILES	pEC50 [1, 3]	pIC50 [2, 4]	pIC50 [2]	pEC50 [1]
O=C(NC1CC1)c1ccc(F)c(Cn2c(C(=O)NS(=O)(=O)C3CC3)c(-c3ccc[nH]c3=O)c3c4occc4c(F)cc32)c1 [Compound 221]	< 5.82	> 7.60		
CS(=O)(=O)NC(=O)c1c(-c2ccc[nH]c2=O)c2c3occc3c(F)cc2n1Cc1cc([N+](=O)[O-])ccc1F [Compound 179]	> 6.30	> 7.60		
O=C(NS(=O)(=O)C1CC1)c1c(-c2ccc[nH]c2=O)c2c3occc3cc(F)c2n1Cc1cc(F)ccc1F [Compound 178]	> 6.30	> 7.60		
CC(C)S(=O)(=O)NC(=O)c1c(-c2ccc[nH]c2=O)c2c3occc3c(F)cc2n1Cc1cc(C(N)=O)ccc1F [Compound 199]	> 6.30	> 7.60		
NC(=O)c1ccc(F)c(Cn2c(C(=O)NS(=O)(=O)C3CC3)c(-c3ccc[nH]c3=O)c3c4occc4c(F)cc32)c1 [Compound 195]	> 6.30	> 7.60		
CN(C)S(=O)(=O)NC(=O)c1c(-c2ccc[nH]c2=O)c2c3occc3ccc2n1Cc1cc2ccccc2nc1Cl [Compound 204]	> 6.30	> 7.60		
CS(=O)(=O)NC(=O)c1c(-c2ccc[nH]c2=O)c2c3occc3c(F)cc2n1Cc1ccccc1F [Compound 134]	> 6.30	> 7.60		
Cc1ccccc1Cn1c(C(=O)O)c(-c2ccc[nH]c2=O)c2c3occc3ccc21 [Compound 41]	> 6.30	> 7.60		
CCOC(=O)c1c(-c2ccccc2F)c2c3c(C)c(C)[nH]c3ccc2n1Cc1ccccc1 [Compound 51]	< 5.82		< 7.00	
O=C(O)c1c(-c2ccc[nH]c2=O)c2c3occc3c(F)cc2n1Cc1ccc2[nH]c(C(F)(F)F)nc2c1 [Compound 145]	5.82 to 6.30	> 7.60		
Cc1ccc(Cn2c(C(=O)NS(=O)(=O)C3CC3)c(-c3ccc[nH]c3=O)c3c4occc4ccc32)c(C)c1 [Compound 152]	> 6.30	> 7.60		
O=C(NS(=O)(=O)C1CC1)c1c(-c2ccc[nH]c2=O)c2c3occc3c(F)cc2n1Cc1cc2c(=O)[nH]cnc2cc1F [Compound 212]	> 6.30		> 7.60	
O=C(NS(=O)(=O)C1CC1)c1c(-c2ccc[nH]c2=O)c2c3occc3c(F)cc2n1Cc1ccccc1F [Compound 162]	> 6.30	> 7.60		
O=C(O)c1c(-c2ccc[nH]c2=O)c2c3occ(Cl)c3ccc2n1Cc1cc(F)ccc1F [Compound 46]	> 6.30	> 7.60		
COc1ccc2cc(Cn3c(C(=O)O)c(-c4ccc[nH]c4=O)c4c5occc5c(F)cc43)c(Cl)nc2c1 [Compound 153]	> 6.30	> 7.60		
O=C(O)c1c(-c2ccc[nH]c2=O)c2c3occ(Cl)c3c(F)cc2n1Cc1cc2ccccc2nc1Cl [Compound 159]	> 6.30	> 7.60		

SMILES	pEC50 [1, 3]	pIC50 [2, 4]	pIC50 [2]	pEC50 [1]
Cc1cc2ccc3c(c(-c4ccc[nH]c4=O)c(C(=O)O)n3Cc3ccccc3F)c2o1 [Compound 76]	< 5.82	7.00 to 7.60		
COc1cc(Cn2c(C(=O)OCOC(=O)C(C)(C)C)c(-c3cccn(COC(=O)C(C)(C)C)c3=O)c3c4occc4c(F)cc32)c(F)cn1 [Compound 226]	> 6.30	< 7.00		
CCc1coc2c1ccc1c2c(-c2ccc[nH]c2=O)c(C(=O)NS(C)(=O)=O)n1Cc1ccccc1F [Compound 70]	< 5.82	< 7.00		
CS(=O)(=O)NC(=O)c1c(-c2ccc[nH]c2=O)c2c3occc3ccc2n1Cc1cc2ccccc2nc1Cl [Compound 180]	> 6.30	> 7.60		
NC(=O)c1cnc(F)c(Cn2c(C(=O)O)c(-c3ccc[nH]c3=O)c3c4occc4c(F)cc32)c1 [Compound 109]	> 6.30	> 7.60		
Cc1cccc(Cn2c(C(=O)NS(=O)(=O)C3CC3)c(-c3ccc[nH]c3=O)c3c4occc4ccc32)c1F [Compound 155]	> 6.30	> 7.60		
COc1ccc([N+](=O)[O-])cc1Cn1c(C(=O)O)c(-c2ccc[nH]c2=O)c2c3occc3ccc21 [Compound 104]	< 5.82	> 7.60		
NCc1ccc(Cn2c(C(=O)O)c(-c3ccc[nH]c3=O)c3c4occc4c(F)cc32)c(F)c1 [Compound 95]	> 6.30	> 7.60		
O=C(O)c1c(-c2ccc[nH]c2=O)c2c3occc3c(F)cc2n1Cc1nc2ccccc2[nH]c1=O [Compound 117]	> 6.30	> 7.60		
NCc1ccc(Cn2c(C(=O)O)c(-c3ccc[nH]c3=O)c3c4occc4c(F)cc32)cc1 [Compound 82]	> 6.30	> 7.60		
O=C(O)c1c(-c2ccc[nH]c2=O)c2c3occc3c(F)cc2n1Cc1cc2c(=O)[nH]cnc2cc1F [Compound 127]	> 6.30	> 7.60		
CC(C)(C)C(=O)OCn1cccc(-c2c(C(=O)O)n(Cc3cc4ccccc4nc3Cl)c3cc(F)c4ccoc4c23)c1=O [Compound 219]	> 6.30	< 7.00		
CC(C)S(=O)(=O)NC(=O)c1c(-c2ccc[nH]c2=O)c2c3c(c(F)cc2n1Cc1csc(C(N)=O)c1)CCO3 [Compound 188]	> 6.30	> 7.60		
CC(C)n1ncc2cc(Cn3c(C(=O)O)c(-c4ccc[nH]c4=O)c4c5occc5c(F)cc43)c(Cl)nc21 [Compound 156]	5.82 to 6.30	> 7.60		
O=C(O)c1c(-c2cccc(O)c2F)c2c3occc3c(F)cc2n1Cc1ccccc1F [Compound 88]	5.82 to 6.30	7.00 to 7.60		
O=C(O)c1c(-c2ccc[nH]c2=O)c2c3occc3c(F)cc2n1Cc1cc(=O)[nH]cc1F [Compound 87]		> 7.60		> 6.30
